{"source": "patent US9926298B2", "about": "“Heterocyclic compounds and use thereof” (National Health Research Institutes, priority 2014, dated 2018)", "key": {"Limb Ischemia in Mice": {"test_system": "Limb Ischemia in Mice", "test": "Limb ischemia in mice", "type": "in vivo, ICR mice", "conditions": "6 mg/kg/d subcutaneous, twice a week, laser Doppler perfusion, seven weeks", "protocol": "Unilateral hindlimb ischemia was induced in ICR mice by ligating and excising the right femoral artery. Briefly, animals were anesthetized by an intraperitoneal injection of Xylocaine (2 mg/kg of body weight) plus Zoletil (i.e., the dissociative anesthetic Tiletamine/Zolazepam at a ratio of 1:1; 5 mg/kg of body weight). The proximal and distal portions of the femoral artery were ligated with a silk thread, and a 0.2 centimeter section of the blood vessel was removed. Hindlimb blood perfusion was measured with a laser Doppler perfusion imager system (Moor Instruments Limited, Devon, UK) before and after the surgery and was then followed on a weekly basis. Animals were subcutaneously treated with compound 4 (6 mg/kg/d, twice a week) in saline after surgery. The animals were sacrificed by cervical dislocation without sedation at the end of the seven experimental weeks. To avoid the influence of ambient light and temperature, the results are expressed as the ratio of perfusion in the right (ischemic) versus left (non-ischemic) limb."}, "Ischemic Stroke in Rats": {"test_system": "Ischemic Stroke in Rats", "test": "Ischemic stroke in rats (MCAo)", "type": "in vivo, male Sprague-Dawley rats", "conditions": "1 mg/kg/d i.p. for 5 days; for horizontal movement number compared with vehicle-treated animals / vertical movement number: day 2 after MCAo; for volume of infarction as compared to vehicle (TTC staining): day 5 after MCAo", "protocol": "Adult male Sprague-Dawley rats (250-300 g) were anesthetized with chloral hydrate (400 mg/kg i.p.). The right middle cerebral artery was occluded (MCAo) and bilateral common carotids (CCAs) were clamped for 60 minutes to generate focal ischemia in the right cerebral cortex. Core body temperature was maintained at 37° C.\nCompounds 62 and 63 and a vehicle were administered to the rats at a dose of 1 mg/kg/d (i.p.) for 5 consecutive days. The first dose was given at 90 minutes after MCAo. Each animal was placed in a 42×42×31 cm activity monitor for 1 h on day 2 after MCAo. The monitor contained 16 horizontal and 8 vertical infrared sensors spaced 2.5 cm apart. Locomotor activity was calculated using the number of infrared beams broken by the animals.\nTTC staining was performed on day 5 after MCAo to determine infarction size as described previously in Brain Research, volume 1116, issue 1, 2006, pages 159-165. Briefly, rats were decapitated and the brains were removed and sliced into 2.0-mm-thick sections. The brain slices were incubated in a 2% TTC solution (Sigma-Aldrich) for 15 minutes at room temperature and then transferred into a 4% paraformaldehyde solution for fixation. The area of infarction in each slice was measured with a digital scanner and Imagetools programs (University of Texas Health Sciences Center). The volume of infarction in each animal was obtained from the product of average slice thickness (2 mm) and sum of infarction areas in all brain slices examined."}}, "data": [{"smiles": "c1ccc2c(NC3CCNCC3)nc(NCc3cn(CCCNCCCNC4CCCCC4)nn3)nc2c1", "note": "[Compound 4]", "values": [{"measurement": "improvement of blood flow in the ischemic hindlimb as compared with the vehicle control", "setting": "Limb Ischemia in Mice", "value": "20-25%"}]}, {"smiles": "N[C@@H](CCC(=O)N1CCC(Nc2nc(NCc3cn(CCCNCCCNC4CCCCC4)nn3)nc3ccccc23)CC1)C(=O)OCc1ccccc1", "note": "[Compound 62]", "values": [{"measurement": "horizontal movement number compared with vehicle-treated animals", "setting": "Ischemic Stroke in Rats", "value": "significant increase"}, {"measurement": "vertical movement number", "setting": "Ischemic Stroke in Rats", "value": "significantly increased"}, {"measurement": "volume of infarction as compared to vehicle (TTC staining)", "setting": "Ischemic Stroke in Rats", "value": "significantly reduced"}]}, {"smiles": "N[C@@H](CCC(=O)N1CCC(Nc2nc(NCc3cn(CCCNCCCNC4CCCCC4)nn3)nc3ccccc23)CC1)C(=O)O", "note": "[Compound 63]", "values": [{"measurement": "horizontal movement number compared with vehicle-treated animals", "setting": "Ischemic Stroke in Rats", "value": "significant increase"}, {"measurement": "vertical movement number", "setting": "Ischemic Stroke in Rats", "value": "significantly increased"}, {"measurement": "volume of infarction as compared to vehicle (TTC staining)", "setting": "Ischemic Stroke in Rats", "value": "significantly reduced"}]}]}
